In patent publication US6919377B2, “Cyclohexylamine derivative as subtype selective NMDA receptor antagonists” (Warner Lambert Company LLC, priority 2000, dated 2005):

Assays:
[1] = molecular target: NR1a/NR2B (Rattus norvegicus, UniProt P35439+Q00960); assay: Electrophysiological assay at NMDA receptor subunits expressed in Xenopus oocytes (two-electrode voltage clamp); format: cell-based; conditions: Table 4; cloned rat NMDA receptor subunits in Xenopus oocytes; read-out: NR1a/NR2B Oocyte IC50
Sequence of NR1a/NR2B (Q00960 27-1482, other chains not shown): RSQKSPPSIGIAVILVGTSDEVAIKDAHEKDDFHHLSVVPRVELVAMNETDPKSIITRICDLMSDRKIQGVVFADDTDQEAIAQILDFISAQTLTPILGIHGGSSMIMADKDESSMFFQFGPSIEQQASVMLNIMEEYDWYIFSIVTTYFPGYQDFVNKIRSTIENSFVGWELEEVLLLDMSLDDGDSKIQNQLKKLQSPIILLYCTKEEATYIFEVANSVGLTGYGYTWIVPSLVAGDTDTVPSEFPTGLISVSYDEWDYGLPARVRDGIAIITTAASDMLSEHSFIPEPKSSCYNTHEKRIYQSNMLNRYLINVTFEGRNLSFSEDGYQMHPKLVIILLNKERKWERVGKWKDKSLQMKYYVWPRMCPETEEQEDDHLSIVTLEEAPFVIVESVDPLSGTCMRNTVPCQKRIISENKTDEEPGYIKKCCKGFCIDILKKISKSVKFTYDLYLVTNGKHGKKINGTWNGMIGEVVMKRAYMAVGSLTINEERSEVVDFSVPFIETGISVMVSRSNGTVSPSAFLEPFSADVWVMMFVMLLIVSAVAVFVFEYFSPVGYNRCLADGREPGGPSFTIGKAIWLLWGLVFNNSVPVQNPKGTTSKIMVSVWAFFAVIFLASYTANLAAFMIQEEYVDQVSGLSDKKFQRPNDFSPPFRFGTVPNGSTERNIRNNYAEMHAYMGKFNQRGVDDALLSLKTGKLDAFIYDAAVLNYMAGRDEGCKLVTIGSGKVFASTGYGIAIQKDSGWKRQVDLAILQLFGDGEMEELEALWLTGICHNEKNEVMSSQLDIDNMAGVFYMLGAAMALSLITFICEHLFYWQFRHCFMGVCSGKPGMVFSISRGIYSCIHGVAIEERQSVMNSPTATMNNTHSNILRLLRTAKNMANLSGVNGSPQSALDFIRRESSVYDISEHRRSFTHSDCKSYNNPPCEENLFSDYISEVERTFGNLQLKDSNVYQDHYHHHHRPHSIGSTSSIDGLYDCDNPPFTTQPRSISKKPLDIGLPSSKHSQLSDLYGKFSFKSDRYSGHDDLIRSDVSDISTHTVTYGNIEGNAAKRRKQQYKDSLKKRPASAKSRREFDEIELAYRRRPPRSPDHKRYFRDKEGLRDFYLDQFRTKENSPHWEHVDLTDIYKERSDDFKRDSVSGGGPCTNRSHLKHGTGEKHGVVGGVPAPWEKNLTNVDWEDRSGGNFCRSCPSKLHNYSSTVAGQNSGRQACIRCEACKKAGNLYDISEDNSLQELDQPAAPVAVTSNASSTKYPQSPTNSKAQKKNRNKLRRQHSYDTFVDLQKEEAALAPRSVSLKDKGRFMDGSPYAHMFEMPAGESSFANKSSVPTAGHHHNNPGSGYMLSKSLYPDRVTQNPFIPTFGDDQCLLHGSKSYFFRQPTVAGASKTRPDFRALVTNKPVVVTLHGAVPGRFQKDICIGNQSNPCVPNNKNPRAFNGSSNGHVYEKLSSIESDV
Protocol: The clones were transformed into appropriate host bacteria and plasmid preparations were made with conventional DNA purification techniques. A sample of each clone was linearized by restriction enzyme digestion […] was synthesized with T3 RNA polymerase. The cRNA was diluted to 400 ng/μL and stored in 1 μL aliquots at −80° C. until injection.
The Xenopus Oocyte Expression System. […] Follicle-enclosed oocytes were micro-injected with 1:1 mixtures of NR1A:NR2A, 2B or 2C.; injecting 1 to 10 ng of RNA encoding each receptor subunit. NR1A encoding RNA was injected alone at ˜20 ng. Oocytes were stored in Barth's medium containing (in mM): NaCl, 88; KCl, 1; CaCl2, 0.41; Ca (NO3)2, 0.33; MgSO4, 0.82; NaHCO3, 2.4; HEPES 5, pH 7.4, with 0.11 mg/ml gentamicin sulphate. While oocytes were still surrounded by enveloping ovarian tissues, the Barth's medium was supplemented with 0.1% bovine serum.
Drugs were applied by bath perfusion. Using oocytes expressing different subunit combinations of NMDA receptor, NMDA currents were activated by co-application of glutamate (100 μM) and glycine (1-100 μM). Inhibitory potency of the novel antagonists was assessed on responses elicited by fixed concentrations of glutamate and glycine, by measuring reductions in current induced by progressively increasing concentrations of antagonist.
Concentration-inhibition curves were fit with Equation 1. […] For incomplete curves analysis by fitting was unreliable and IC50 values were calculated by simple regression over linear portions of the curves (Origin: Microcal Software).

[2] = tested on: Alpha 1; assay: Alpha 1 (Table 4, no method given); format: binding; conditions: read-out: Alpha 1 cocn IC50
[3] = molecular target: D2 (Homo sapiens, UniProt P14416); assay: D2 Raclopride (Table 4, no method given); format: binding
Sequence of D2 (P14416 whole entry): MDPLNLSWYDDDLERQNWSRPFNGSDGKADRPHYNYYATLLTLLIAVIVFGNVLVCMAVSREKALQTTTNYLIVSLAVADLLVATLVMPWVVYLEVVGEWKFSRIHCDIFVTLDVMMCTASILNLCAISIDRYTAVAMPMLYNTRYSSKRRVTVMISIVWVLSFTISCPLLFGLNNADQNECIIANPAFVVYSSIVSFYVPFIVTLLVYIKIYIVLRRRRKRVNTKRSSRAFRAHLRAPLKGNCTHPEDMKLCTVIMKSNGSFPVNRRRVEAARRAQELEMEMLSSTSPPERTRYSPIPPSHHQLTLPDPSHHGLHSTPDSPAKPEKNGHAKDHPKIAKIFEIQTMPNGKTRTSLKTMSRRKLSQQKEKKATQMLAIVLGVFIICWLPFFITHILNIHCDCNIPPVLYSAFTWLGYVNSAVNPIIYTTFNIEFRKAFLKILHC

SMILES	IC50 [1] [nM]	IC50 [2] [nM]	IC50 [3] [nM]
COc1ccc(CCN[C@H]2CC[C@H](c3ccc(O)cc3)CC2)cc1 [Example 8b, trans-4-{4-[2-(4-Methoxyphenyl)ethylamino]cyclohexyl}phenol]	240	5100	1900
COc1ccc(CCN[C@H]2CC[C@@H](c3ccc(O)cc3)CC2)cc1 [Example 8a, cis-4-{4-[2-(4-Methoxyphenyl)ethylamino]cyclohexyl}phenol]	2400	9200	5000
Oc1ccc([C@H]2CC[C@@H](NCCc3ccc(F)cc3)CC2)cc1 [Example 5a, cis-4-{4-[2-(4-Fluorophenyl)ethylamino]cyclohexyl}phenol]	1200	10000	2700
COc1ccc(CCCN[C@H]2CC[C@H](c3ccc(O)cc3)CC2)cc1 [Example 28, Trans-4-{4-[3-(4-methoxyphenyl)propylamino]cyclohexyl}phenol]	70	2300	2970
